Results: patent publication US20090045056A1, “Stable three enzyme creatinine biosensor” (priority 2004, published 2009)
One block for each compound: values may come before it.

Tests used:
sarcosine oxidase [1] = biological target: T1, sarcosine oxidase (Bacillus sp., UniProt P40859); conditions: cited from earlier work; for Ki: inhibitor of sarcosine oxidase
T1 sequence (P40859 1-390): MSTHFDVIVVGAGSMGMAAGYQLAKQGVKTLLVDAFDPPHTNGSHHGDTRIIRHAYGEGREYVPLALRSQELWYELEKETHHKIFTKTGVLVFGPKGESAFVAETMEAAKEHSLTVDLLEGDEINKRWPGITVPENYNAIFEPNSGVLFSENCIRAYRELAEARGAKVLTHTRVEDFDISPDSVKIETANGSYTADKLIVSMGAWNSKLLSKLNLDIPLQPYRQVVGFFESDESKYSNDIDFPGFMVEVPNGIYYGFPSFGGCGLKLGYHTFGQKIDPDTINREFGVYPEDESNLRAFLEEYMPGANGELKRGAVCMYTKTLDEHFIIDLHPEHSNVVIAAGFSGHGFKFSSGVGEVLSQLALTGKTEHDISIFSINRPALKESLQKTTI

[2] = tested on: creatine amidinohydrolase; assay: Additives to prevent silver inhibition of creatine amidinohydrolase; assay type: biochemical, Actinobacilus sp.; conditions: 50 mM additive, pre-incubation
Method: Creatine amidinohydrolase (1.0 mg/ml) was prepared in solution with either 50 mM EDT A, 50 mM EGT A, 50 mM mercaptoethanol, 50 mM DTT or 50 mM cysteine with 20 mM Tris, pH 7.5.

[3] = tested on: creatinine amidohydrolase; conditions: silver nitrate from 1 nM, 5 min to 1 hr incubation
Method: An enzyme solution (0.1 mL) was incubated with a mixture (0.90 mL) of 100 mM creatine in mM soditim phosphate (pH 7.5) at 37° C. for 10 minutes. After 10 minutes, the creatine/enzyme mixture (0.1 mL) was added to 0.5 M sodium hydroxide (1.9 mL) and 1% picric acid (1.0 mL). This solution was incubated for 20 minutes at room temperature and the absorbance at 520 nm was measured. One unit was defined as the amount of enzyme which catalyzed the formation of 1 μmol of creatinine per minute.
Samples were removed periodically and assayed using the end point assay.

[4] = tested on: creatine amidinohydrolase; conditions: 5-100 μM silver nitrate
Method: Creatine amidinohydrolase activity was monitored using a colorimetric assay that measures urea formation from the hydrolysis of creatine (Tsuchida and Yoda, Clin. Chem. 29:51-55 (1983)). An enzyme solution (0.1 mL) was incubated with a mixture (0.90 mL) of 100 mM creatine in sodium phosphate buffer (50 mM, pH 7.5) at 37° C. for 10 minutes. The reaction was stopped by adding 2.0 mL of a solution containing Ehrlich's reagent (2.0 g of p-dimethyl aminobenzaldehyde in 100 mL of dimethyl sulfoxide plus 15 mL of concentrated HCl). The solution was incubated for 20 minutes at room temperature and the absorbance at 435 nm was measured. One unit was defined as the amount of enzyme that catalyzes the hydrolysis of 1 μmol of substrate per minute.
Samples were removed periodically and assayed using the end point assay. […] After 10 minutes of incubation, the stop solution (p-dimethyl benzaldehyde solution) was added.

sarcosine oxidase [5] = biological target: sarcosine oxidase (Arthrobacter sp., UniProt P40873); conditions: 1 nM to 1 mM silver nitrate, various incubation times, residual activity assayed in absence of silver
Sequence of sarcosine oxidase (Arthrobacter sp., UniProt P40873) (P40873 whole entry): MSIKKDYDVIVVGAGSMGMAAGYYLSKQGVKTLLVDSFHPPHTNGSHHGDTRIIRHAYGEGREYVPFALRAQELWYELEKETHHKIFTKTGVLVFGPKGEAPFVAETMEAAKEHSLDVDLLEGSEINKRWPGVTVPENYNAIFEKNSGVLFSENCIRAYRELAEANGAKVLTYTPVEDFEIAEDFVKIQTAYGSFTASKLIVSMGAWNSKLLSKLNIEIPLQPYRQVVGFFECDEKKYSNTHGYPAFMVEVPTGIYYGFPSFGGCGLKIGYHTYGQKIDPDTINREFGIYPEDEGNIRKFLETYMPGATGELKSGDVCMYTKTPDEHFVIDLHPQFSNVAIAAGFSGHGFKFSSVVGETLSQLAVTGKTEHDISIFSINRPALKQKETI
Method: Typically, an enzyme solution (0.05 mL) was incubated with a mixture (1.0 mL total) of 95 mM sarcosine, 0.47 mM 4-aminoantipyrene, 2 mM phenol, 0.045% Triton X-100, 50 mM sodium phosphate (pH 8.0) and 5 units/mL of horseradish peroxidase at 37° C. for 10 minutes. The reaction was terminated by addition of 2.0 mL of 0.25% SDS solution and the absorbance at 500 nm was measured. One unit was defined as the amount of enzyme that catalyzed the oxidation of 1). mol of substrate per minute.
Samples were removed periodically and assayed using the end point assay for sarcosine oxidase activity.

Compound: CSCC(=O)O [(methylthio)acetic acid]
Ki (sarcosine oxidase [1]): 2.6 mM

prevention of silver inhibition of creatine amidinohydrolase [2]: effectively prevented
Compound: O[C@@H](CS)[C@@H](O)CS [DTT]

Compound: O=C(O)c1ccc[nH]1 [Pyrrole-2-carboxylic acid]
Ki (sarcosine oxidase [1]): 1.37 mM

prevention of silver inhibition of creatine amidinohydrolase [2]: effectively prevented
Compound: N[C@@H](CS)C(=O)O [cysteine]

prevention of silver inhibition of creatine amidinohydrolase [2]: effectively prevented
Compound: OCCS [mercaptoethanol]

Compound: CNCC(=O)O [sarcosine]
Km (sarcosine oxidase [1]; native substrate of sarcosine oxidase): 600 µM

Compound: O=[N+]([O-])[O-].[Ag+] [silver nitrate]
inhibition of creatinine amidohydrolase by silver ions [3]: effective inhibitor of creatinine amidinohydrolase at high concentrations | inhibition of creatine amidinohydrolase by silver ions [4]: completely inhibiting enzyme activity | inhibition of sarcosine oxidase by silver ions (sarcosine oxidase [5]): effective irreversible inhibitor
